How the values were obtained:
[1] = xn = mol fraction of the nth substance listed; details: 100.8 kPa, Liquid; for viscosity: Capillary tube (Ostwald / Ubbelohde) method
[2] = refractive index (Na D-line) (dimensionless); xn = mol fraction of the nth substance listed; details: 100.8 kPa, Liquid, Standard Abbe refractometry

CC(C)CC(C)(C)C [2,2,4-trimethylpentane] + CCO
Details | mass density, 288.15 K [kg/m3] | mass density, 298.15 K [kg/m3] | mass density, 308.15 K [kg/m3] | refractive index, 288.15 K | refractive index, 298.15 K | refractive index, 308.15 K | viscosity, 288.15 K [mPa·s] | viscosity, 298.15 K [mPa·s] | viscosity, 308.15 K [mPa·s]
[1], x2 = 0 | 695.95 | 687.74 | 679.41 | – | – | – | 0.537 | 0.48 | 0.432
[1], x2 = 0.0502 | 697.2 | 688.84 | 680.36 | – | – | – | 0.532 | 0.473 | 0.424
[1], x2 = 0.1 | 698.76 | 690.33 | 681.76 | – | – | – | 0.535 | 0.476 | 0.426
[1], x2 = 0.15 | 700.55 | 692.11 | 683.52 | – | – | – | 0.542 | 0.48 | 0.429
[1], x2 = 0.2 | 702.53 | 694.07 | 685.43 | – | – | – | 0.551 | 0.487 | 0.434
[1], x2 = 0.25 | 704.71 | 696.21 | 687.56 | – | – | – | 0.564 | 0.497 | 0.441
[1], x2 = 0.3 | 707.1 | 698.57 | 689.88 | – | – | – | 0.58 | 0.51 | 0.451
[1], x2 = 0.35 | 709.71 | 701.17 | 692.45 | – | – | – | 0.601 | 0.526 | 0.462
[1], x2 = 0.4 | 712.6 | 704.03 | 695.3 | – | – | – | 0.625 | 0.543 | 0.476
[1], x2 = 0.45 | 715.8 | 707.2 | 698.44 | – | – | – | 0.652 | 0.565 | 0.492
[1], x2 = 0.5 | 719.31 | 710.68 | 701.91 | – | – | – | 0.682 | 0.588 | 0.51
[1], x2 = 0.55 | 723.22 | 714.59 | 705.8 | – | – | – | 0.718 | 0.615 | 0.531
[1], x2 = 0.6 | 727.55 | 718.9 | 710.11 | – | – | – | 0.755 | 0.645 | 0.554
[1], x2 = 0.65 | 732.37 | 723.73 | 714.93 | – | – | – | 0.797 | 0.677 | 0.58
[1], x2 = 0.7 | 737.81 | 729.14 | 720.34 | – | – | – | 0.843 | 0.715 | 0.609
[1], x2 = 0.75 | 743.99 | 735.34 | 726.54 | – | – | – | 0.894 | 0.755 | 0.642
[1], x2 = 0.8 | 751.11 | 742.37 | 733.58 | – | – | – | 0.952 | 0.801 | 0.678
[1], x2 = 0.85 | 759.27 | 750.54 | 741.75 | – | – | – | 1.018 | 0.854 | 0.72
[1], x2 = 0.9 | 768.81 | 760.17 | 751.44 | – | – | – | 1.095 | 0.915 | 0.769
[1], x2 = 0.95 | 780.26 | 771.59 | 762.84 | – | – | – | 1.19 | 0.991 | 0.828
[2], x2 = 0 | – | – | – | 1.39404 | 1.389 | 1.38395 | – | – | –
[2], x2 = 0.0502 | – | – | – | 1.39319 | 1.3881 | 1.38297 | – | – | –
[2], x2 = 0.1 | – | – | – | 1.39241 | 1.3873 | 1.38217 | – | – | –
[2], x2 = 0.15 | – | – | – | 1.39162 | 1.38651 | 1.38138 | – | – | –
[2], x2 = 0.2 | – | – | – | 1.39081 | 1.38569 | 1.38056 | – | – | –
[2], x2 = 0.25 | – | – | – | 1.38996 | 1.38485 | 1.37972 | – | – | –
[2], x2 = 0.3 | – | – | – | 1.38907 | 1.38397 | 1.37885 | – | – | –
[2], x2 = 0.35 | – | – | – | 1.38811 | 1.38304 | 1.37794 | – | – | –
[2], x2 = 0.4 | – | – | – | 1.38709 | 1.38204 | 1.37696 | – | – | –
[2], x2 = 0.45 | – | – | – | 1.38597 | 1.38099 | 1.37593 | – | – | –
[2], x2 = 0.5 | – | – | – | 1.38479 | 1.37984 | 1.3748 | – | – | –
[2], x2 = 0.55 | – | – | – | 1.3835 | 1.37858 | 1.37358 | – | – | –
[2], x2 = 0.6 | – | – | – | 1.38209 | 1.37722 | 1.37227 | – | – | –
[2], x2 = 0.65 | – | – | – | 1.38055 | 1.37573 | 1.37083 | – | – | –
[2], x2 = 0.7 | – | – | – | 1.37884 | 1.37408 | 1.36922 | – | – | –
[2], x2 = 0.75 | – | – | – | 1.37694 | 1.37225 | 1.36745 | – | – | –
[2], x2 = 0.8 | – | – | – | 1.37484 | 1.3702 | 1.3655 | – | – | –
[2], x2 = 0.85 | – | – | – | 1.37249 | 1.36792 | 1.3633 | – | – | –
[2], x2 = 0.9 | – | – | – | 1.36984 | 1.36536 | 1.36085 | – | – | –
[2], x2 = 0.95 | – | – | – | 1.36684 | 1.36248 | 1.35812 | – | – | –

CC(C)OC(C)C [diisopropyl ether] + CC(C)CC(C)(C)C
Details | mass density, 288.15 K [kg/m3] | mass density, 298.15 K [kg/m3] | mass density, 308.15 K [kg/m3] | refractive index, 288.15 K | refractive index, 298.15 K | refractive index, 308.15 K | viscosity, 288.15 K [mPa·s] | viscosity, 298.15 K [mPa·s] | viscosity, 308.15 K [mPa·s]
[1], x1 = 0.05 | 697.2 | 688.86 | 680.44 | – | – | – | 0.523 | 0.468 | 0.422
[1], x1 = 0.1 | 698.46 | 690.03 | 681.52 | – | – | – | 0.511 | 0.456 | 0.412
[1], x1 = 0.15 | 699.73 | 691.23 | 682.62 | – | – | – | 0.498 | 0.445 | 0.402
[1], x1 = 0.2 | 701.06 | 692.45 | 683.75 | – | – | – | 0.486 | 0.435 | 0.393
[1], x1 = 0.25 | 702.44 | 693.75 | 684.95 | – | – | – | 0.474 | 0.425 | 0.384
[1], x1 = 0.3 | 703.86 | 695.08 | 686.17 | – | – | – | 0.463 | 0.415 | 0.375
[1], x1 = 0.35 | 705.33 | 696.43 | 687.42 | – | – | – | 0.452 | 0.406 | 0.367
[1], x1 = 0.4 | 706.84 | 697.84 | 688.72 | – | – | – | 0.442 | 0.397 | 0.359
[1], x1 = 0.45 | 708.37 | 699.26 | 690.03 | – | – | – | 0.432 | 0.388 | 0.351
[1], x1 = 0.5 | 709.97 | 700.76 | 691.42 | – | – | – | 0.423 | 0.38 | 0.343
[1], x1 = 0.55 | 711.64 | 702.32 | 692.86 | – | – | – | 0.414 | 0.372 | 0.336
[1], x1 = 0.6 | 713.36 | 703.94 | 694.35 | – | – | – | 0.405 | 0.364 | 0.329
[1], x1 = 0.65 | 715.15 | 705.61 | 695.92 | – | – | – | 0.397 | 0.357 | 0.323
[1], x1 = 0.7 | 716.97 | 707.32 | 697.5 | – | – | – | 0.389 | 0.35 | 0.316
[1], x1 = 0.75 | 718.85 | 709.08 | 699.14 | – | – | – | 0.382 | 0.343 | 0.31
[1], x1 = 0.8 | 720.8 | 710.9 | 700.83 | – | – | – | 0.375 | 0.337 | 0.305
[1], x1 = 0.85 | 722.8 | 712.78 | 702.59 | – | – | – | 0.368 | 0.33 | 0.299
[1], x1 = 0.9 | 724.9 | 714.75 | 704.42 | – | – | – | 0.361 | 0.325 | 0.294
[1], x1 = 0.9499 | 727 | 716.73 | 706.28 | – | – | – | 0.354 | 0.319 | 0.288
[1], x1 = 1 | 729.09 | 718.7 | 708.12 | – | – | – | 0.348 | 0.313 | 0.283
[2], x1 = 0.05 | – | – | – | 1.39293 | 1.38786 | 1.38277 | – | – | –
[2], x1 = 0.1 | – | – | – | 1.39183 | 1.38672 | 1.38159 | – | – | –
[2], x1 = 0.15 | – | – | – | 1.39072 | 1.38557 | 1.38042 | – | – | –
[2], x1 = 0.2 | – | – | – | 1.3896 | 1.38443 | 1.37924 | – | – | –
[2], x1 = 0.25 | – | – | – | 1.38846 | 1.38326 | 1.37803 | – | – | –
[2], x1 = 0.3 | – | – | – | 1.38733 | 1.38209 | 1.37682 | – | – | –
[2], x1 = 0.35 | – | – | – | 1.38619 | 1.38092 | 1.37561 | – | – | –
[2], x1 = 0.4 | – | – | – | 1.38504 | 1.37974 | 1.3744 | – | – | –
[2], x1 = 0.45 | – | – | – | 1.3839 | 1.37856 | 1.37317 | – | – | –
[2], x1 = 0.5 | – | – | – | 1.38274 | 1.37737 | 1.37195 | – | – | –
[2], x1 = 0.55 | – | – | – | 1.38158 | 1.37618 | 1.37072 | – | – | –
[2], x1 = 0.6 | – | – | – | 1.38042 | 1.37499 | 1.36949 | – | – | –
[2], x1 = 0.65 | – | – | – | 1.37926 | 1.3738 | 1.36826 | – | – | –
[2], x1 = 0.7 | – | – | – | 1.37809 | 1.37259 | 1.36703 | – | – | –
[2], x1 = 0.75 | – | – | – | 1.37691 | 1.37138 | 1.36578 | – | – | –
[2], x1 = 0.8 | – | – | – | 1.37573 | 1.37016 | 1.36452 | – | – | –
[2], x1 = 0.85 | – | – | – | 1.37456 | 1.36896 | 1.36327 | – | – | –
[2], x1 = 0.9 | – | – | – | 1.37337 | 1.36774 | 1.36201 | – | – | –
[2], x1 = 0.9499 | – | – | – | 1.37217 | 1.3665 | 1.36073 | – | – | –
[2], x1 = 1 | – | – | – | 1.37093 | 1.36524 | 1.35944 | – | – | –
